What was measured:
Assay type in all cases: functional, cell-based
M14 = test: Antiproliferative activity against human M14 cells measured after 72 hrs by MTS assay; settings: M14, 72 h
SK-BR-3 = test: Antiproliferative activity against human SK-BR-3 cells measured after 72 hrs by MTS assay; settings: SK-BR-3, 72 h
A-375 = test: Antiproliferative activity against human A375 cells measured after 72 hrs by MTS assay; settings: A-375, 72 h
RPMI-7951 = test: Antiproliferative activity against human RPMI7951 cells measured after 72 hrs by MTS assay; settings: RPMI-7951, 72 h
MDA-MB-231 = test: Antiproliferative activity against human MDA-MB-231 cells measured after 72 hrs by MTS assay; settings: MDA-MB-231, 72 h
MDA-MB-453 = test: Antiproliferative activity against human MDA-MB-453 cells measured after 72 hrs by MTS assay; settings: MDA-MB-453, 72 h
[1] = Antiproliferative activity against human DU145-TxR cells measured after 72 hrs by MTS assay
PC-3 = test: Antiproliferative activity against human PC3 cells measured after 72 hrs by MTS assay; settings: PC-3, 72 h
[2] = Antiproliferative activity against human PC3/TxR cells measured after 72 hrs by MTS assay
DU-145 = test: Antiproliferative activity against human DU145 cells measured after 72 hrs by MTS assay; settings: DU-145, 72 h
[3] = Antiproliferative activity against human M14/LCC6MDR1 cells measured after 72 hrs by MTS assay

| Structure (SMILES) | IC50 (SK-BR-3) [nM] | IC50 (A-375) [nM] | IC50 (MDA-MB-231) [nM] | IC50 (MDA-MB-453) [nM] | IC50 (M14) [nM] | IC50 (RPMI-7951) [nM] | IC50 [1] [nM] | IC50 (PC-3) [nM] | IC50 [2] [nM] | IC50 (DU-145) [nM] | IC50 [3] [nM] |
| --- | --- | --- | --- | --- | --- | --- | --- | --- | --- | --- | --- |
| COc1cc(C(=O)c2cccc(-c3cncc4ccccc34)n2)cc(OC)c1OC | > 1000 | > 1000 | > 1000 | > 1000 | > 1000 | > 1000 | – | – | – | – | – |
| COc1cc(C(=O)c2cc(O)cc(-c3ccc(C)cc3)n2)cc(OC)c1OC | > 1000 | > 1000 | > 1000 | > 1000 | > 1000 | > 1000 | – | – | – | – | – |
| COc1cc(C(=O)c2cccc(-c3cccc([N+](=O)[O-])c3)n2)cc(OC)c1OC | 736 | 311 | 328 | 881 | 87.9 | 54.7 | – | – | – | – | – |
| COc1cc(C(=O)c2cccc(-c3ccc4[nH]c5ccccc5c4c3)n2)cc(OC)c1OC | 321 | 277 | 424 | 301 | 293 | 202 | – | – | – | – | – |
| COc1cc(C(=O)c2cccc(-c3cccc(O)c3)n2)cc(OC)c1OC | 101 | 35.8 | 41.4 | 29.1 | 31.4 | 29.9 | – | – | – | – | – |
| COc1cc2c(c(OC)c1OC)-c1ccc(OC)c(=O)cc1[C@@H](NC(C)=O)CC2 [COLCHICINE] | – | – | – | – | 9.3 | – | > 1000 | 19 | 56.3 | 17.3 | 1400 |
| COc1cc(C(=O)c2cccc(-c3cccnc3)n2)cc(OC)c1OC | 109 | 60.1 | 66.5 | 102 | 55.3 | 51.9 | – | – | – | – | – |

More lines, in order of falling IC50 (SK-BR-3), values ahead:

| IC50 (SK-BR-3) [nM] | IC50 (A-375) [nM] | IC50 (MDA-MB-231) [nM] | IC50 (MDA-MB-453) [nM] | Structure (SMILES) | IC50 (M14) [nM] | IC50 (RPMI-7951) [nM] | IC50 [1] [nM] | IC50 (PC-3) [nM] | IC50 [2] [nM] | IC50 (DU-145) [nM] | IC50 [3] [nM] |
| --- | --- | --- | --- | --- | --- | --- | --- | --- | --- | --- | --- |
| 62.7 | 60.6 | 66.3 | 64.8 | COc1cc(C(=O)c2cncc(-c3ccc(C)c(O)c3)c2)cc(OC)c1OC | 57.1 | 63.6 | – | – | – | – | – |
| 51.2 | 46.6 | 41 | 33.9 | COc1cc(C(=O)c2cccc(-c3cc[nH]c3)n2)cc(OC)c1OC | 45.1 | 45.2 | – | – | – | – | – |
| 20 | 27.4 | 35.9 | 15.6 | COc1cc(C(=O)c2cccc(-c3ccc(C)c(O)c3)c2)cc(OC)c1OC | 16.2 | 15.7 | – | – | – | – | – |
| 19.7 | 19.2 | 23.8 | 8.5 | COc1cc(C(=O)c2cccc(-c3c[nH]c4ccccc34)n2)cc(OC)c1OC | 17.8 | 19.5 | – | – | – | – | – |
| 19 | 9.3 | 17.9 | 16 | COc1cc(C(=O)c2cccc(-c3cccc4[nH]ccc34)n2)cc(OC)c1OC | 12.2 | 6.5 | – | – | – | – | – |
| 14.9 | 7 | 17.7 | 14.9 | COc1cc(C(=O)c2cccc(-c3ccc4[nH]ccc4c3)n2)cc(OC)c1OC | 6.7 | 7.4 | – | – | – | – | – |
| 12.3 | 12.3 | 28.1 | 10.6 | COc1cc(C(=O)c2cccc(-c3ccc(C#N)cc3)n2)cc(OC)c1OC | 12.8 | 11.9 | – | – | – | – | – |
| 4.4 | 5.9 | 6.5 | 6.5 | COc1cc(C(=O)c2cccc(-c3ccc(C)c(F)c3)n2)cc(OC)c1OC | 6.7 | 5.6 | – | – | – | – | – |

From ChEMBL document CHEMBL4376868, “Structure-Activity Relationship Study of Novel 6-Aryl-2-benzoyl-pyridines as Tubulin Polymerization Inhibitors with Potent Antiproliferative Properties” (J Med Chem, 2020)
